Tests used:
HaCaT keratinocytes [1] = assay: non-radioactive cell proliferation assay, HaCaT keratinocytes; assay type: cell-based
Protocol: (§1) Each cell was seeded into a 96-well plate and cultured at 37° C. for 48 hours. The cultured cells were treated with G75, MA, or DMSO at a concentration of 5 μM or 10 μM. After 48 hours, the proliferation of these cells was confirmed using the non-radioactive cell proliferation assay kit (Promega, WI, USA), and migration of these cells was confirmed in the same manner as in Example 1-2 (FIG. 2).

human dermal fibroblasts [2] = assay: non-radioactive cell proliferation assay, human dermal fibroblasts; assay type: cell-based; settings: 10 μM, 48 hours
Protocol: as §1

[3] = system: excision wound mouse model; assay: in vivo wound closure activity in excision wound mouse model; settings: ICR mice, once a day for 9 days, topical
Protocol: The in vivo wound closure activity was measured in an excision wound mouse model.
Eight-week-old male ICR mice were purchased from Narabiotech (Korea), acclimatized for one week, and used in the experiment. Two full-thickness circular wounds (diameter: 5 mm) were created on the dorsal region of each mouse, and the progressive changes in wound closure were measured relative to the original wound area. G75 (5 μM/wound) or MA (10 μM/wound) was then applied on each wound area once a day for 9 days. DMSO-propylene glycol was used as a vehicle control.

HaCaT keratinocytes [4] = assay: MTT analysis of proliferation of HaCaT keratinocytes; assay type: cell-based; settings: 48 hours
Protocol: HaCaT keratinocytes were treated with major ginsenosides (e.g., Rb1, Rd, Re, and Rg1) and other ginsenosides (e.g., C-K, F1, F2, G17, G75, PPD, PPT, Rg2, Rg3, Rh1, and Rh2) at a concentration of 0.01 μM to 20 μM for 48 hours and then subjected to MTT analysis (FIG. 1A). As the control group, DMSO was used.

HaCaT keratinocytes [5] = assay: scratch wound closure assay (migration of HaCaT keratinocytes); assay type: cell-based
Protocol: Specifically, HaCaT keratinocytes were cultured in a 6-well plate and the plate was scratched using a 200 μL micropipette tip. The remainder was washed with PBS and the cells were cultured for 24 hours, treated with 10 μM ginsenoside or DMSO, and the gap regions were measured (FIG. 1B).
as §1

[6] = system: dorsal excisional wound tissue; assay: RNA sequencing of dorsal excisional wound tissue; assay type: in vivo, mouse; settings: third day after treatment; p 0.05 or below and change of 1.7-fold or greater
Protocol: (§2) To examine the process of G75 involvement in wound recovery, RNA sequencing was performed. After creating an excision wound on the dorsal area of each mouse, the wound was treated with G75 or the vehicle control, and RNA was isolated from the dorsal excisional wound tissue on the third day after the treatment and analyzed. When the p value was 0.05 or below and there was a change of 1.7-fold or greater, the change was considered to significant.

Angpt1 = assay: RNA sequencing, growth factor mRNA level in wound tissue; assay type: in vivo, mouse; settings: third day after treatment, versus vehicle control
Protocol: as §2
(§3) To confirm the effect of G75 on the growth factors involved in wound healing, the mRNA levels of growth factors were measured based on the results of RNA sequencing analysis.

CTGF [7] = assay: as above; assay type: in vivo, mouse; settings: third day after treatment, versus vehicle control
Protocol: as §2, §3

Csf2 = assay: as above; assay type: in vivo, mouse; settings: third day after treatment, versus vehicle control
Protocol: as §2, §3

Fgf10 = assay: as above; assay type: in vivo, mouse; settings: third day after treatment, versus vehicle control
Protocol: as §2, §3

Fgf2 = assay: as above; assay type: in vivo, mouse; settings: third day after treatment, versus vehicle control
Protocol: as §2, §3

Fgf7 = assay: as above; assay type: in vivo, mouse; settings: third day after treatment, versus vehicle control
Protocol: as §2, §3

Hbegf = assay: as above; assay type: in vivo, mouse; settings: third day after treatment, versus vehicle control
Protocol: as §2, §3

Hgf = assay: as above; assay type: in vivo, mouse; settings: third day after treatment, versus vehicle control
Protocol: as §2, §3

Igf1 = assay: as above; assay type: in vivo, mouse; settings: third day after treatment, versus vehicle control
Protocol: as §2, §3

Tgf alpha = assay: as above; assay type: in vivo, mouse; settings: third day after treatment, versus vehicle control
Protocol: as §2, §3

Tgf beta1 = assay: as above; assay type: in vivo, mouse; settings: third day after treatment, versus vehicle control
Protocol: as §2, §3

Vegf alpha = assay: as above; assay type: in vivo, mouse; settings: third day after treatment, versus vehicle control
Protocol: as §2, §3

CTGF protein = assay: western blot of CTGF protein in wound skin tissue; assay type: in vivo, mouse; settings: after 3 days
Protocol: To examine whether the G75 treatment increases the expression level of CTGF protein, each wound was treated with G75, and after 3 days, the skin tissue was collected and subjected to western blot.

CTGF [8] = assay: ELISA assay of CTGF production by human dermal fibroblasts; assay type: cell-based; settings: supernatant of human dermal fibroblasts
[9] = compared with ginsenosides having a large size (about 1,000 Da); cited from earlier work
human dermal fibroblasts [10] = assay: proliferation of human dermal fibroblasts treated with CTGF; assay type: cell-based

madecassoside [reference compound]
cell proliferation (HaCaT keratinocytes [1]; HaCaT keratinocytes, 10 μM, 48 hours): slight effect | cell proliferation (human dermal fibroblasts [2]): slight effect | wound area compared to vehicle control ([3]; 10 μM/wound): wound areas became smaller

CC(C)=CCC[C@](C)(O[C@@H]1O[C@H](CO[C@@H]2O[C@H](CO)[C@@H](O)[C@H](O)[C@H]2O)[C@@H](O)[C@H](O)[C@H]1O)[C@H]1CC[C@]2(C)[C@@H]1[C@H](O)C[C@@H]1[C@@]3(C)CC[C@H](O)C(C)(C)[C@@H]3CC[C@]12C [G75, gypenoside LXXV]
cell proliferation effect relative to the control group (HaCaT keratinocytes [4]; 0.01 μM to 20 μM, DMSO control): about 136.8% | cell proliferation effect (HaCaT keratinocytes [4]; 0.01 μM to 20 μM, compared to other ginsenosides / control): highest cell proliferation effect | concentration at which the highest cell proliferation effect was shown (HaCaT keratinocytes [4]): 10 µM | cell migration (HaCaT keratinocytes [5]; Example 2-1, 5 μM): significant effect | cell migration (HaCaT keratinocytes [5]; Example 2-1, 10 μM): significant effect | migration effect (gap regions) (HaCaT keratinocytes [5]; HaCaT keratinocytes, 10 μM, compared to DMSO control): highest migration effect | effects compared with MA at the same concentration (HaCaT keratinocytes [1]; cell proliferation and cell migration, HaCaT keratinocytes and human dermal fibroblasts): superior effects to MA | wound area compared to vehicle control ([3]; 5 μM/wound): wound areas became smaller | number of genes whose expression level was changed [6]: 1048 | Fold change Angpt1 mRNA (Angpt1): 1.796 | Fold change CTGF mRNA (CTGF [7]): 1.879 | Fold change Csf2 mRNA (Csf2): 5.545 | Fold change Fgf10 mRNA (Fgf10): 1.750 | Fold change Fgf2 mRNA (Fgf2): 8.143 | Fold change Fgf7 mRNA (Fgf7): 1.789 | Fold change Hbegf mRNA (Hbegf): 1.267 | Fold change Hgf mRNA (Hgf): 1.191 | Fold change Igf1 mRNA (Igf1): 1.367 | Fold change Tgf alpha mRNA (Tgf alpha): 1.504 | Fold change Tgf beta1 mRNA (Tgf beta1): 1.392 | Fold change Vegf alpha mRNA (Vegf alpha): 1.281 | expression level of CTGF protein (CTGF protein): significantly increased | amount of CTGF production (CTGF [8]): increased the amount of CTGF production | in vivo absorption rate [9]: greater in vivo absorption rate

B1: CTGF: connective tissue growth factor, applied to human dermal fibroblasts (protein, UniProt P29279 27-349, looked up)
CCN family member 2: QNCSGPCRCPDEPAPRCPAGVSLVLDGCGCCRVCAKQLGELCTERDPCDPHKGLFCHFGSPANRKIGVCTAKDGAPCIFGGTVYRSGESFQSSCKYQCTCLDGAVGCMPLCSMDVRLPSPDCPFPRRVKLPGKCCEEWVCDEPKDQTVVGPALAAYRLEDTFGPDPTMIRANCLVQTTEWSACSKTCGMGISTRVTNDNASCRLEKQSRLCMVRPCEADLEENIKKGKKCIRTPKISKPIKFELSGCTSMKTYRAKFCGVCTDGRCCTPHRTTTLPVEFKCPDGEVMKKNMMFIKTCACHYNCPGDNDIFESLYYRKMYGDMA
proliferation compared to the vehicle control (human dermal fibroblasts [10]): higher level of proliferation
